This passage reports IC50 results from BindingDB's records for doi:10.1021/acs.jmedchem.0c00899 (Ut Southwestern Medical Center, 2020).

A short description of test [1]: Inhibition of SCD in human NCI-H2122 cells expressing CYP4F11 assessed as reduction in cell viability incubated for 96 hrs by cell titer Glo reagent based assay. In general terms: Cellular ATP, detected with luciferase, serves as a proxy for viable cell number.
Test [2] is described as follows: Inhibition of SCD in human NCI-H1155 cells non-expressing CYP4F11 assessed as reduction in cell viability incubated for 96 hrs by cell titer Glo reagent based assay.
A short description of test [3]: Inhibition of SCD in human H2009 cells non-expressing CYP4F11 assessed as reduction in cell viability incubated for 96 hrs by cell titer Glo reagent based assay.

Usually IC50 stands for the point on the concentration scale where inhibition reaches its midpoint.

Where only a bound is given, the exact number is not on record here.

Turning to `Cc1nnc(-c2ccc(N3CCC(Oc4cc(F)ccc4Cl)CC3)nn2)o1`, the IC50 in test [1] and in test [2] was below 0.01 µM in each case.

`COc1ccc2nc(NS(=O)(=O)c3ccccc3)sc2c1`: in test [1], the IC50 is above 50 µM.

Turning to `COc1ccc2nc(NC(=O)c3cccnc3)sc2c1`, the IC50 turned out to be 1.1 µM in test [1] and 37 µM in test [3].

Take `O=C(Nc1nccs1)c1ccc(C(=O)c2ccccc2)cc1`: the half-maximal inhibitory concentration (IC50) in test [1] was 33 µM; in test [3] it was above 50 µM.

`COc1ccc2nc(NC(=O)c3ccc(C(=O)N4CCN(C)CC4)cc3)sc2c1`: the IC50 in test [1] and in test [3] was above 50 µM in each case.

Consider `COc1ccc(C(=O)Nc2nc3cc(N)ccc3s2)cc1`, for which the concentration for half-maximal inhibition (IC50) in test [1] and in test [3] was above 50 µM throughout.

For `O=C(Nc1nc2ccccc2s1)c1cccnc1`, the half-maximal inhibitory concentration (IC50) in test [1] was 0.26 µM; in test [3], above 50 µM.

For the molecule `O=C(Nc1nc2ccccc2[nH]1)c1ccc(C(=O)c2ccccc2)cc1`, the IC50 in test [1] came to 0.042 µM; in test [3] it was 1.8 µM.

On to `O=C(Nc1nc(-c2ccccc2)cs1)c1ccc(C(=O)c2ccccc2)cc1`, for which the IC50 in test [1] worked out at 4.7 µM; in test [3] it was 14.9 µM.

On to `O=C(Nc1ncc(-c2ccccc2)s1)c1ccc(C(=O)c2ccccc2)cc1`, for which the half-maximal inhibitory concentration (IC50) amounted to 5.8 µM in test [1] and 5 µM in test [3].

In the case of `COc1ccc2nc(NC(=O)CCc3ccccc3)sc2c1`, the IC50 in test [1] was above 50 µM.

As for `O=C(Nc1nc2ccccc2o1)c1ccc(C(=O)c2ccccc2)cc1`, the IC50 in test [1] was determined as 43 µM.
